The structures appear in SMILES notation.

One may read the melting point as the temperature, or range, at which the solid turns liquid. Molecule `Fc1ccccc1COC1COC(c2ccco2)OC1` (stereo not drawn) displayed a melting point of 50.5 to 52 °C.

On to `CCCOC(=O)c1ccc2c3cccc4cccc(c5ccc(C(=O)OCCC)c1c25)c43`, for which the melting point turned out to be 253 °C.

Molecule `CC1(C)CCC(C)(C)c2cc(NC(=O)c3ccc(CO)cc3)ccc21` returned a melting point of 161 to 162 °C.

In the case of `O=S(=O)(c1ccccc1)n1c2cc(O)c(O)cc2c2ccc(O)c(O)c21`, the melting point is 176 to 178 °C.

`CC(=C1SC(=O)NC1=O)c1ccc(SCCc2ccccc2)cc1`: the melting point was in the range of 183 to 187 °C.

`COC(=O)c1cccc(Oc2ccnc(Cl)c2)n1` had a melting point of 89 °C.

In turn, `Cc1nc2nn(-c3ccccc3)c(N)c2c(=O)[nH]1` displayed a melting point of 279 to 281 °C.

As for `CC1CC(=O)c2c(C(=O)Nc3ccc(F)cc3)c[nH]c2C1` (stereo not drawn), the melting point lay within 262 to 264 °C.

`O=S(c1ccccc1-c1ccccc1)C(F)(F)C(F)(F)C(F)(F)C(F)(F)C(F)(F)C(F)(F)C(F)(F)C(F)(F)F` (stereo not drawn): the melting point was in the range of 62 to 63 °C.

`Cc1ccc(Oc2ccc(C(=O)O)cc2)cc1` yielded a melting point of 175 °C.

With `CCc1nn(C2CN(C(C)C)C2)c(C(N)=O)c1NC(=O)c1cc(S(C)(=O)=O)ccc1OCC(C)C`, the melting point lay within 185 to 189 °C.

Turning to `Cc1cc(I)cc(C=CC#N)c1`, the melting point turned out to be 98 °C.

Molecule `CC(=O)c1cc(N2CCCC2)ccc1NC(=O)c1cccc2c1OCO2` showed a melting point of 139 to 141 °C.

`Cc1c(C)c2c(c(C)c1OCc1ccccc1)CC(C)(CN1CCN(c3ccccc3)CC1)O2` (stereo not drawn) yielded a melting point of 120 to 121 °C.

`O=c1[nH]c2cc(Br)sc2[nH]c1=O` showed a melting point of over 300 °C.

The molecule `CCC1(C)CCNC1=O` (stereo not drawn) returned a melting point of 39 to 40 °C.

The molecule `CNC(Cc1ccccc1NC(=O)C(C)(C)C)c1ccccc1C` (stereo not drawn) displayed a melting point of 77 to 79 °C.

Molecule `CC(=O)NN1CCN(CCc2c[nH]c3ccccc23)CC1` had a melting point of 183 to 186 °C.

Molecule `CC(C)(O)c1ccc(C2CCNCC2)c(F)c1` registered a melting point of 151 °C.

Molecule `OC(c1cccs1)C1CCN(CCc2ccccc2)CC1` (stereo not drawn) displayed a melting point of 123 to 125 °C.

Molecule `CCCCC[C@H]1CC[C@H](/C=C/COc2ccc(C=O)cc2)CC1` yielded a melting point of 54 to 55 °C.

Regarding `CC(=O)NC(C(=O)NC(C(=O)NC(Cc1ccccc1)C(O)C(Cc1ccccc1)NC(=O)C(NC(=O)C(NC(C)=O)C(C)C)C(C)C)C(C)C)C(C)C` (stereo not drawn), the melting point lay in the range of 271 to 272 °C.

Take `COC(=O)c1cc(OC)c(OCCCN)cc1[N+](=O)[O-]`: the melting point was in the range of 101 to 103 °C.

Consider `Cc1cc(C(C)(C)C)c(O)c(S(=O)(=O)Nc2ccc(C#N)cc2Cl)c1`, for which the melting point is 101 to 105 °C.

On to `CC(C)N(NC(=O)OC(C)(C)C)C(=O)NCC(F)(F)F`, for which the melting point fell in the range of 90 to 94 °C.

On to `CCCCc1nc(CCCC)n(Cc2ccc(-c3ccccc3-c3nnn[nH]3)cn2)n1`, for which the melting point fell in the range of 136 to 138 °C.

`COc1cc2c(cc1Nc1ncc(Cl)c(N[C@@H]3CCCC[C@H]3NS(C)(=O)=O)n1)N(C)CCN(C[C@@H](O)C(F)(F)F)C2` displayed a melting point of 63 to 66 °C.

The molecule `CC(=O)Oc1ccc(C(=O)O)c2ccccc12` displayed a melting point of 182 to 184 °C.

Turning to `Cc1nc(-c2ccc(F)cc2)n(-c2ccc(S(C)(=O)=O)cc2)n1`, the melting point lay in the range of 143 to 144 °C.

`O=C(O)COc1ccc2c(-c3ccc(Cl)cc3F)noc2c1Cl` showed a melting point of 226 to 227 °C.

Molecule `Cc1cc(NC(=O)c2ccc(F)cc2)c(C)cc1N` gave a melting point of 174 to 176 °C.

`C=C1CCC2C3CCc4cc(OC(C)=O)ccc4C3CCC12C` (stereo not drawn) showed a melting point of 77 to 79 °C.

`COC(=O)CNC(=O)c1[nH]c(C)c(-c2nc3ccc(C(=O)c4ccccc4)cc3[nH]2)c1C` yielded a melting point of 149 to 151 °C.

In turn, `CCCCN(CCCC)c1ccc(C=Cc2ccc(C(C#N)=C(C#N)C#N)s2)c(OCc2ccccc2)c1` registered a melting point of 125 to 130 °C.

Molecule `CC(C)c1nc(-c2ccccc2)nc(-c2ccc(F)cc2)c1C=O` displayed a melting point of 127 to 129 °C.

Consider `CCOC(=O)Nc1ccc(C(c2ccccc2)n2ccnc2)cc1COC1CCCCO1` (stereo not drawn), for which the melting point turned out to be 132 °C.

In turn, `O=C(O)CN1C(=O)C(=Cc2cccc(Cl)c2)SC1=S` came in with a melting point of 227 to 229 °C.

Turning to `O=c1[nH]c2cccnc2n1-c1ccc2c(c1)COC2`, the melting point came to 243 °C.

In turn, `COc1cc(OC)cc(-c2cc(=O)c3ccc(OCCCBr)cc3o2)c1` registered a melting point of 173 to 174 °C.

The molecule `c1ccc(N=C2N=C(c3ccccc3)N=C2Nc2ccccc2)cc1` had a melting point of 201 °C.

`COc1cccc(OC)c1C(=O)Nc1nnc(-c2nc3ccccc3s2)s1` yielded a melting point of over 260 °C.

Take `CC(C)(C)OC(=O)[C@H]1CC[C@@H](c2ccccc2)N1C(=O)CNC(=O)Nc1cccc(OCC(=O)O)c1` (racemic): the melting point was determined as 192 °C.

`O=C(O)c1cn(-c2ccc(F)cc2)c2cc(N3CCNC(c4ccco4)C3)c(F)cc2c1=O` (stereo not drawn) returned a melting point of 242 °C.

Regarding `CC(O)CNc1nc(NCc2ccccc2N)c2ncn(C(C)C)c2n1` (racemic), the melting point lay in the range of 175 to 179 °C.

The molecule `CCN(c1nc2ccccc2c(=O)o1)c1ccccc1I` registered a melting point of 129 to 130 °C.

`CC1(C)Cc2cc(OCC(N)=O)c3c(c2C(c2ccccc2)=N1)CC(C)(C)O3` yielded a melting point of 117 to 119 °C.

`CC#Cc1ccc(NC(=O)c2cccnc2NCc2ccc(OC)nc2)cc1C(F)(F)F`: the melting point fell in the range of 109 to 111 °C.

`NS(=O)(=O)c1ccc(-n2nc(C(F)F)cc2-c2nc3ccccc3s2)cc1` registered a melting point of 247 to 249 °C.

In turn, `Clc1ncccc1-c1cccnc1` had a melting point of 92 to 93.5 °C.

Molecule `CC(C)(C)OC(=O)N[C@@]1(C(=O)OC(C)(C)C)C[C@@H](F)[C@H]2[C@H](C(=O)OC(C)(C)C)[C@H]21` came in with a melting point of 140 to 143 °C.

The molecule `c1ccc(-c2nn(CCCCCCCCc3nn[nH]n3)c(-c3ccccc3)c2-c2ccccc2)cc1` had a melting point of 158 to 160 °C.

For the molecule `C[C@@H](Nc1ncnc2[nH]c(-c3ccc(C#N)cc3)cc12)c1ccccc1`, the melting point lay within 333 to 336 °C.

Molecule `O=C(O)CCCCCc1c[nH]c2ccccc12` yielded a melting point of 124 to 126 °C.

As for `Cc1cc(C)c2cccc(OCc3c(Cl)ccc(S(=O)(=O)N4CCC[C@H]4C(=O)NCCCNC(=O)Cc4ccc(C=NN)cc4)c3Cl)c2n1`, the melting point was in the range of 184 to 188 °C.

Take `C#CCn1c(C(F)(F)F)c(CO)oc1=O`: the melting point worked out at 64 °C.

The molecule `CN1C(=O)C(c2ccc(OC(F)F)cc2)(c2cccc(C3CC(=O)C3)c2)N=C1N` (stereo not drawn) gave a melting point of 68 to 70 °C.

In turn, `Cc1nc2cc(S(=O)(=O)n3c(COC(C)(C)C(=O)O)cc4cc(Cl)ccc43)ccc2s1` had a melting point of 134 to 136 °C.

In turn, `COc1cc2c(c3c1OC(C)(C)C3)C(c1cccc(O)c1)=NC(C)(C)C2` yielded a melting point of 208 to 209 °C.

For `CC(=O)NCCOc1ccc(N)cc1O`, the melting point is 134 °C.

Turning to `CCOC(=O)C(C)(C)Sc1ncnc2c(O)n(C)nc12`, the melting point was 155 to 156 °C.

In the case of `CC(C)n1nc(-c2c(Oc3ccccc3)nc(N)nc2-c2ccccc2)ccc1=O`, the melting point lay within 218 to 221 °C.

Molecule `Cc1c(NC(=O)CC(C)(C)C)c(C)c2c(c1-c1ccc(F)nc1)OCC2c1ccc(C(C)C)cc1` (stereo not drawn) returned a melting point of 135 to 137 °C.

With `COc1cc2ccccc2c(C2NCCc3ccccc32)c1O` (stereo not drawn), the melting point was 154 to 156 °C.

In turn, `COc1ccc(-c2oncc2CCC(=O)O)cc1` came in with a melting point of 101 to 102 °C.

`Nc1nc2cccnc2n1Cc1ccco1` returned a melting point of 193 °C.

Consider `CC(=O)c1ccc(N2C(=O)C(=O)N(c3cccc(Cl)c3)C2=O)cc1`, for which the melting point was 148 °C.

For the molecule `CCOC(=O)N(c1ccc(Cl)cc1)c1ccccc1[N+](=O)[O-]`, the melting point fell in the range of 90 to 93 °C.

Take `CC(C)Nc1nc(-c2nc[nH]n2)cc(Cl)c1-c1c(F)cccc1Cl`: the melting point was found to be 152 °C.

Consider `COc1nc(Cl)nc(N)c1-c1ccccc1`, for which the melting point was 213 °C.

In the case of `Cc1[nH]c2ccccc2c1Cc1cccnc1`, the melting point was 207 to 210 °C.

`CC(C)(C)c1ccc(OP(Oc2ccc(C(C)(C)C)cc2C(C)(C)C)c2cccc3ccccc23)c(C(C)(C)C)c1` had a melting point of 125 to 127 °C.

For `O=C(OCc1ccccc1Cl)c1ncn2c1[C@@H]1CCCN1C(=O)c1c(Cl)cccc1-2`, the melting point was in the range of 192 to 193 °C.

In the case of `CCCCC1OC(=O)c2cc(N)ccc21` (stereo not drawn), the melting point is 129 to 131 °C.

Turning to `O=C(OCCn1ccnc1)C(O)c1ccccc1` (stereo not drawn), the melting point was 131 to 132 °C.

The molecule `O=c1n(CC(F)(F)F)c2cc(F)ccc2n1C1CCNCC1` yielded a melting point of over 280 °C.

Regarding `COc1ccc(OC)c(S(=O)(=O)n2c(COC(C)C(=O)O)cc3cc(Cl)ccc32)c1` (stereo not drawn), the melting point is 196 to 198 °C.

`CCOC(=O)c1cc(Br)cc2c(=O)c(OCCCN3CCN(Cc4ccc5ccccc5n4)CC3)c(-c3ccccc3)oc12`: the melting point lay within 125 to 126 °C.

Molecule `CCOc1ccc(S(=O)(=O)N(CC(=O)NN=C2C(=O)Nc3ccccc32)c2ccc(C)cc2)cc1` registered a melting point of 130 to 131 °C.

For `Clc1ccc(N=c2ccn3ccccc3c2)cc1`, the melting point lay within 183 to 184 °C.

As for `CCOC(=O)CC(C(=O)c1ccc(OC)cc1)c1ccc(OC)c(F)c1` (stereo not drawn), the melting point lay in the range of 117 to 118 °C.

In the case of `N#Cc1c(N)cccc1Sc1cccc(N)c1`, the melting point fell in the range of 99 to 100 °C.

The molecule `CCCc1nnc2ccc(-c3ccc(C(F)(F)F)cc3)nn12` registered a melting point of 173 to 175 °C.

Regarding `O=C(NCc1cccnc1)c1cnc(N2CCN(CC3CC3)C2=O)s1`, the melting point was 190 to 192 °C.

Regarding `Cn1c(C(=O)O)c(-c2ccc(F)cc2)c2ccn(C)c2c1=O`, the melting point was 155 to 157 °C.

`CCC(CC)Nc1n[nH]c(=O)c2c1ccn2-c1c(C)cc(C)cc1C` returned a melting point of 183 to 185 °C.

For `CCOC(=O)CCCN(C(=O)c1cccc(C(F)(F)F)c1)c1ccccc1-c1ccccc1`, the melting point lay within 65 to 67 °C.

Turning to `CNc1ccc2cc(OC)ccc2c1N=O`, the melting point worked out at 261 °C.

As to `Cc1cc(NC(=O)OC(C)(C)C)c(N)cc1-c1ccc(F)cc1`, the melting point was 112 °C.
